Patent publication EP1022029A1, “NOOTROPIC AGENT” (priority 1997, dated 1999)
Read-outs that look alike come from different tables or passages of the source.

Columns and labels:
Assay type in all cases: cell-based
α4β2 receptor = biological target: T1, α4β2 receptor (Rattus norvegicus, UniProt P09483+P12390); assay: ACh-evoked currents in α4β2 receptors expressed in Xenopus oocytes (two-electrode voltage clamp); conditions: for normalized response (%): nef(+), n=5
T1 construct: expressed in transfected cells; host or cells: Xenopus oocytes injected with in vitro transcribed mRNA
Method: Two-electrode voltage-clamp technique was used to record expression α4β2 or α7 receptors in oocytes. ACh (100 µM) was applied to a single oocyte in the presence or absence of α-BuTX (50 nM) or MCA (3 µM). The holding voltage was -30 or -60 mV for α4β2-nAChR or α7-nAChR, respectively. Downward directions correspond to inward currents.
mRNAs for the rat α4β2 receptor and α7 receptor, GLUR1, 2, 3 receptors, and NP152 and NP153 were constructed as described previously. Xenopus oocytes were manually separated from the ovary, and subjected to treatment with collagenase (0.5 mg/ml). Thereafter, the treated oocytes were incubated overnight in Barth's solution (in mM, 88 NaCl, 1 KCl, 2.4 NaHCO3, 0.82 MgSO4, 0.33 […], 0.41 CaCl2, and 7.5 Tris; pH 7.6). The oocytes were injected with the α4β2 or α7 receptor mRNA and incubated at 18°C. In some cases, NP152 and NP153 were co-expressed with the α4β2 and α7 receptors. The injected oocytes were incubated and transferred to a recording chamber 2-7 days after incubation and continuously superfused at room temperature (20-22°C) with a standard frog Ringer's solution [in mM: 115 NaCl, 2 KCl, 1.8 CaCl2, 5 HEPES; pH 7.0]. To remove the effect of endogenous muscarinic ACh receptor, 1 µM atropine was added to the extracellular solution. ACh-evoked currents were recorded by use of two-electrode voltage clamp techniques and an amplifier (GeneClamp-500, Axon Instrument, Inc. USA). The currents were analyzed on a microcomputer by pClamp software (Axon Instrument, Inc.; Version 6). From the results, an assessment was made as to whether nefiracetam actually acts on the nACh receptors.

[1] = biological target: T2, AMPA (GluR1, 2, 3) receptor (Rattus norvegicus, UniProt P19490+P19491+P19492); assay: Kainate-evoked currents in GluR1, 2, 3 receptors expressed in Xenopus oocytes; conditions: nefiracetam 1 µM; kainate 100 µM; holding voltage -30 mV; n=5
T2 construct: expressed in transfected cells; host or cells: Xenopus oocytes injected with mRNA
Method: GluR 1, 2, 3 receptors which are AMPA receptors were expressed in Xenopus oocytes. Cell membrane currents evoked with kainate (100 µM) were recorded before and after administration of nefiracetam (1 µM) (n=5). […] The holding voltage was -30 mV. • (B): An oocyte expressing normal ACh receptors was loaded with Calcium Green. In Ca^2+-free (extCa^2+(-)) extracellular solution (extCa^2+(-)) and ordinary (i.e., Ca^2+-containing) extracellular solution, intracellular Ca^2+ ([Ca^2+]i) and Ach-evoked currents (IA) were recorded. The Ca^2+ rise was normalized by dividing "Δ increase of fluorescence intensity (DI)" by "base intensity (I)", and further by "current amplitude obtained with Ca^2+-free solution (2) (µA)". Indicated by "(1)" are currents obtained with Ca^2+-containing solution.
GluR1, 2, 3 receptors were expressed in Xenopus oocytes. Cell membrane currents evoked by kainate (100 µM) were recorded (n = 5) before and after treatment with nefiracetam (1 µM). The holding voltage was fixed at -30 mV.

[2] = system: mutant ACh receptors lacking potent PKC phosphorylation sites on the α and δ subunits (mαΔPKC/Ser333m δΔPKC/Ser377); assay: ACh-evoked currents in mutant ACh receptors lacking PKC phosphorylation sites expressed in Xenopus oocytes; conditions: nefiracetam 1 µM
normal ACh receptors = biological target: T3, normal ACh receptors (Tetronarce californica, UniProt P02710+P02712+P02714+P02718); assay: Calcium permeability of normal ACh receptors in oocytes loaded with Calcium Green; conditions: normal solution + nefiracetam (1μM); ACh 100 µM; mean ± SD, n=7
T3 construct: expressed in transfected cells; host or cells: Xenopus oocytes
Method: An oocyte expressing normal ACh receptors was loaded with Calcium Green. Intracellular calcium ([Ca^2+]i) and evoked currents (IA) were recorded for each of the cases in which administration of ACh (100 µM) was carried out in a Ca^2+-free (extCa^2+(-)) extracellular solution or in an ordinary extracellular solution (Calcium Green TM-1 (Molecular Probes, Inc. USA) was injected to the oocytes). The Ca^2+ rise was normalized by Δ increase (δI) of intensity/base intensity/current amplitude (µA) obtained with calcium-free media.
In Table 15, each value represents the average from seven oocytes (SD; standard deviation). ACh-evoked currents in the Xenopus oocytes expression system are composed of acetylcholine-gated channel currents and calcium-dependent chloride currents. Nefiracetam had no effect on calcium permeability through the nACh receptor channel. (Table 15). The results from Examples 6a and 6b indicate that nefiracetam modulated acetylcholine-gated channel currents but not calcium-sensitive chloride (Cl^-) currents.

T1 sequence (P09483 31-630): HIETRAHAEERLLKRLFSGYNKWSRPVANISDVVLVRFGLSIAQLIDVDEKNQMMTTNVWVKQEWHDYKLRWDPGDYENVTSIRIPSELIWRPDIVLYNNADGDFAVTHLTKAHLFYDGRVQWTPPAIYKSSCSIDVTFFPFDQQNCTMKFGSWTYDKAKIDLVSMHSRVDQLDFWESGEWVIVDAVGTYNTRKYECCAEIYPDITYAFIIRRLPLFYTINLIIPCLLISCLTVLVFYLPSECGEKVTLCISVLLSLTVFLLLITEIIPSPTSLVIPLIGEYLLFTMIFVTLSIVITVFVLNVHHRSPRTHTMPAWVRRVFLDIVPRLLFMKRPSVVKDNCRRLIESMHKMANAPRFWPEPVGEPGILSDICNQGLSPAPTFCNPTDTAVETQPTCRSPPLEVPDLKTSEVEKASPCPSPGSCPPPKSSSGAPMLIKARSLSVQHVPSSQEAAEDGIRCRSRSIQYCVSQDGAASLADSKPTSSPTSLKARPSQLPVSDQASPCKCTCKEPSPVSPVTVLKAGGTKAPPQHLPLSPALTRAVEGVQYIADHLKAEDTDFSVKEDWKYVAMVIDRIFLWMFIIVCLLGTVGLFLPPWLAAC
T1 sequence (P12390 25-500): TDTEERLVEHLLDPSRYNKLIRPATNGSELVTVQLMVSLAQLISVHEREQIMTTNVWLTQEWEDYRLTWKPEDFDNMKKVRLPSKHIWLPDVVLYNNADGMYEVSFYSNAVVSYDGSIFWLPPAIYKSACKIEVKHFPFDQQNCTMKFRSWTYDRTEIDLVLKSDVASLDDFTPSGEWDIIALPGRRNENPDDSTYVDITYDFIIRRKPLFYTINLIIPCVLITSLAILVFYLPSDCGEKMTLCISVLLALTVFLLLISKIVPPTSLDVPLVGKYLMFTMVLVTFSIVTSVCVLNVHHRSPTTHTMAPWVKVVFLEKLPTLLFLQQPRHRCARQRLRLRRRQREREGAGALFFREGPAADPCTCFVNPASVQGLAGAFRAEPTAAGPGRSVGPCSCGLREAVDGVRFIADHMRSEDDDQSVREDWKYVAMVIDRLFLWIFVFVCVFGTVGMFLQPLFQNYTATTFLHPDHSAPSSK
T3 sequence (P02710 25-461): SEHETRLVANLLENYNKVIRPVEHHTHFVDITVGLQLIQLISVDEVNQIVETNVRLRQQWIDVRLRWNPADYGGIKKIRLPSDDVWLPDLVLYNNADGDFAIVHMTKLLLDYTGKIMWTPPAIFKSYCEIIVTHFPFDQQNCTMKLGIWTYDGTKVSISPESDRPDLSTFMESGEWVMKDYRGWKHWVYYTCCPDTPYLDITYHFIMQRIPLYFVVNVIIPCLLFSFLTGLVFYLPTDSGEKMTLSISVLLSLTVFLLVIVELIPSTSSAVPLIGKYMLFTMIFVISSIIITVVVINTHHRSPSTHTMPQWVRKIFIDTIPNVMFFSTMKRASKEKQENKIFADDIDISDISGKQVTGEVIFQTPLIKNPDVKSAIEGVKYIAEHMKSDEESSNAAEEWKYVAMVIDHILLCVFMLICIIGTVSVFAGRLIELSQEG
T3 sequence (P02712 25-493): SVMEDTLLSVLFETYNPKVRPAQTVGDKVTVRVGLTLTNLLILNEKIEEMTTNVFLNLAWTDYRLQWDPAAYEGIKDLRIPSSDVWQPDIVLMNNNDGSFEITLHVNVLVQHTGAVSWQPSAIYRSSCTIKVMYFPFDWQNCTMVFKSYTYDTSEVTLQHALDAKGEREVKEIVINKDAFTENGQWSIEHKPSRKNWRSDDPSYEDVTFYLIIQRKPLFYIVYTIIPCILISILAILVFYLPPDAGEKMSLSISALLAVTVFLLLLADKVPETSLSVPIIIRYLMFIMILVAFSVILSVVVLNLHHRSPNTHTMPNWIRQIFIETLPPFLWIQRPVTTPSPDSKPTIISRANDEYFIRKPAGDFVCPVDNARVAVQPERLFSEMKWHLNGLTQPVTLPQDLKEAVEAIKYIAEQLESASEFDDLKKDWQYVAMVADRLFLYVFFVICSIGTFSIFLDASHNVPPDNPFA
T3 sequence (P02714 18-506): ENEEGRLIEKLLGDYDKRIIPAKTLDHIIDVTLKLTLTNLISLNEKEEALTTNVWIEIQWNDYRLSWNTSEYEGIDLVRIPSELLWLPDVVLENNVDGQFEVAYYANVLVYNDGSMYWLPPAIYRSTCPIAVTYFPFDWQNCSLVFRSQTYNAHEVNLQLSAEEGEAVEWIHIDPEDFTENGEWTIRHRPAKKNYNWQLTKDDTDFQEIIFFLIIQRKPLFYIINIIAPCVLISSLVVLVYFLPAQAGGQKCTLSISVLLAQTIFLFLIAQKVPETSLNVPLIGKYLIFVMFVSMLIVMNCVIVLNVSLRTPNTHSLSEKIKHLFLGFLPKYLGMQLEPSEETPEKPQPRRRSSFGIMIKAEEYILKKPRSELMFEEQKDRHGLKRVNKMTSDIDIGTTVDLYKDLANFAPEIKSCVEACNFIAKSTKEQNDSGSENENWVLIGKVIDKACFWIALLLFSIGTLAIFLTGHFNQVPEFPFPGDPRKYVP
T3 sequence (P02718 22-522): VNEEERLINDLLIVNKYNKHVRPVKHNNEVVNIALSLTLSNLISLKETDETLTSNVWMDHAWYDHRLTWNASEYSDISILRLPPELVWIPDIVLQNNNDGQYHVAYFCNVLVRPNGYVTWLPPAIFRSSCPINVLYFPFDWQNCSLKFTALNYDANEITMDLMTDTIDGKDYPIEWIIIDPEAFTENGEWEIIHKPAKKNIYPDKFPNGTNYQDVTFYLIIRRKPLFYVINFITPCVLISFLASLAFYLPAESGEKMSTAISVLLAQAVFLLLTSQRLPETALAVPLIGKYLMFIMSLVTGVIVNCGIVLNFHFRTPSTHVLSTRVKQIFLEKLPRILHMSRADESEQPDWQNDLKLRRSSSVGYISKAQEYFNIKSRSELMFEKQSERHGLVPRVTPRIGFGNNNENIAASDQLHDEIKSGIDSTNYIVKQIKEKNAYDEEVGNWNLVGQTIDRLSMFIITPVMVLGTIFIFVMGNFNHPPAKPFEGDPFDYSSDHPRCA

`Cc1cccc(C)c1NC(=O)CN1CCCC1=O` [nefiracetam, 2-oxo-1-pyrrolidinylacetic acid 2,6-dimethylanilide] was tested. Which “concentration of maximum potentiation of ACh-evoked currents” value (α4β2 receptor) did it give?
The value was 0.1 µM.

And the activity at 1 µM (α4β2 receptor; 1 h, nefiracetam 1 µM, 60 minutes after treatment, read-out: ACh-evoked currents potentiated, reaching)?
Its activity at 1 µM is 180%.

What about the “normalized response (%)” value (α4β2 receptor; ACh 0.1 µM, nefiracetam 1 µM) of the same compound?
Its value is 0%.

And the “normalized response (%)” value (α4β2 receptor; ACh 1 µM, nefiracetam 1 µM)?
Its value is 2%.

And the “normalized response (%)” value (α4β2 receptor; ACh 10 µM, nefiracetam 1 µM)?
Its value is 36%.

What about the “normalized response (%)” value (α4β2 receptor; ACh 100 µM, nefiracetam 1 µM) of the same compound?
The value was 66%.

And the “normalized response (%)” value (α4β2 receptor; ACh 1000 µM, nefiracetam 1 µM)?
Its value is 100%.

And the activity at 0.0001 µM (α4β2 receptor; Nefiracetam 0.0001 µM, n = 5 to 8, read-out: % of the original amplitude)?
The activity at 0.0001 µM was 100 ± 15.5%.

And the activity at 0.001 µM (α4β2 receptor; Nefiracetam 0.001 µM, n = 5 to 8, read-out: % of the original amplitude)?
Its activity at 0.001 µM is 150 ± 13.6%.

What about the activity at 0.01 µM (α4β2 receptor; Nefiracetam 0.01 µM, n = 5 to 8, read-out: % of the original amplitude) of the same compound?
The activity at 0.01 µM was 212 ± 20.5%.

And the activity at 0.1 µM (α4β2 receptor; Nefiracetam 0.1 µM, n = 5 to 8, read-out: % of the original amplitude)?
The activity at 0.1 µM was 225 ± 18.9%.

And the activity at 1 µM (α4β2 receptor; Nefiracetam 1 µM, n = 5 to 8, read-out: % of the original amplitude)?
The activity at 1 µM was 161 ± 12.6%.

And the activity at 10 µM (α4β2 receptor; Nefiracetam 10 µM, n = 5 to 8, read-out: % of the original amplitude)?
Its activity at 10 µM is 156 ± 17.6%.

What about the “currents potentiated to” value (α4β2 receptor; in the presence of the inactive PKC inhibitory peptide (NP153; iPKCI)) of the same compound?
The value was 169.3%.

And the “concentration at which potentiation of ACh-evoked currents was observed” value (α4β2 receptor; lowest effective concentration)?
The value was at least 0.0001 µM.

And the “% of the original amplitude (Ach-evoked current)” value (α4β2 receptor; treatment as labelled, nefiracetam 1 µM, GF109203X 100 nM, peptides co-expressed, Mean ± SD, n = 6 to 8)?
The value was 160 ± 5.6%.

What about the “effect on AMPA (GluR1, 2, 3) receptor currents (Fig. 1)” value [1] of the same compound?
The value was “never potentiated”.

And the “current potentiation in mutant ACh receptors lacking PKC phosphorylation sites” value [2]?
The value was “exhibited no current potentiation”.

What about the “normalized Ca^2+ rise (Δ increase of intensity / base intensity / current amplitude)” value (normal ACh receptors) of the same compound?
Its value is 6.6 ± 1.4.
